Experiments:
Format in all cases: functional
[1] = system: SF-295; assay: Inhibition of the growth of CNS cancer(SF-295) cell line at 0.01 uM; conditions: Homo sapiens
[2] = system: SK-MEL-5; assay: inhibition of the growth of melanoma cancer (SK-MEL-5) cell line; conditions: Homo sapiens
[3] = system: SR; assay: inhibition of the growth of leukemia(SR) cell line; conditions: Homo sapiens
[4] = system: OVCAR-8; assay: inhibition of the growth of ovarian cancer(OVCAR-8) cell line; conditions: Homo sapiens
[5] = system: MDA-N; assay: inhibition of the growth of breast cancer(MDA-N) cell line; conditions: Homo sapiens
[6] = system: NCI-H23; assay: inhibition of the growth of non-small-cell lung cancer (NCI-H23) cell line; conditions: Homo sapiens
[7] = system: NCI-H522; assay: inhibition of the growth of non-small-cell lung cancer (NCI-H522) cell line; conditions: Homo sapiens
[8] = system: M14; assay: inhibition of the growth of melanoma cancer (M14) cell line; conditions: Homo sapiens
[9] = system: UO-31; assay: inhibition of the growth of renal cancer(UO-31) cell line; conditions: Homo sapiens
[10] = system: SF-539; assay: Inhibition of the growth of CNS cancer(SF-539) cell line at 0.01 uM; conditions: Homo sapiens
[11] = system: A549; assay: Inhibition of the growth of non-small-cell lung cancer (A549/ATCC) cell line at 0.01 uM; conditions: Homo sapiens
[12] = system: SNB-19; assay: Inhibition of the growth of CNS cancer(SNB-19) cell line at 0.01 uM; conditions: Homo sapiens
[13] = system: MCF7; assay: inhibition of the growth of breast cancer (MCF-7) cell line; conditions: Homo sapiens
[14] = system: UO-31; assay: Inhibition of the growth of renal cancer(UO-31) cell line at 0.01 uM; conditions: Homo sapiens
[15] = system: OVCAR-8; assay: Inhibition of the growth of ovarian cancer(OVCAR-8) cell line at 0.01 uM; conditions: Homo sapiens
[16] = system: SNB-19; assay: inhibition of the growth of CNS cancer(SNB-19) cell line; conditions: Homo sapiens
[17] = biological target: T1, Bifunctional dihydrofolate reductase-thymidylate synthase (Toxoplasma gondii, UniProt Q07422); assay: Inhibitory activity against dihydrofolate reductase(DHFR) from Toxoplasma gondii
T1 sequence (Q07422 whole entry): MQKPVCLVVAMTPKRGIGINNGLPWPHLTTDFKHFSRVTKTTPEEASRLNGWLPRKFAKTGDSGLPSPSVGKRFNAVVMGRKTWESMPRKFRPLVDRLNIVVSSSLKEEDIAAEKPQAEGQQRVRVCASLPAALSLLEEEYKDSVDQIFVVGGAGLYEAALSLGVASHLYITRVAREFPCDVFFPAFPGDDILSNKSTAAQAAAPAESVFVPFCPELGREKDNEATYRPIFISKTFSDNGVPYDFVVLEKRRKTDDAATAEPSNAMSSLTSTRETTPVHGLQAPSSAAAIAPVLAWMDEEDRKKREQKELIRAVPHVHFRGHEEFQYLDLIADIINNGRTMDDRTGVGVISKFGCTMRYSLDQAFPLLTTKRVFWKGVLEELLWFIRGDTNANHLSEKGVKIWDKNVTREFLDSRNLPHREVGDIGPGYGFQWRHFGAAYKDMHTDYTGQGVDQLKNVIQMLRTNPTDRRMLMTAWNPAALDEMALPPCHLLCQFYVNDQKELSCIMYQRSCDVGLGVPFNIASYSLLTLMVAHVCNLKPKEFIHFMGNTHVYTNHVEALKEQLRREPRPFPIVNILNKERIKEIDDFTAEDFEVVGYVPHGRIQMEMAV

[18] = system: MDA-MB-435; assay: Inhibition of the growth of breast cancer (MDA-MB-435) cell line at 0.01 uM; conditions: Homo sapiens
[19] = system: A549; assay: inhibition of the growth of non-small-cell lung cancer (A549/ATCC) cell line; conditions: Homo sapiens
[20] = system: NCI/ADR-RES; assay: inhibition of the growth of breast cancer (MCF7/ADR-RES) cell line; conditions: Homo sapiens
[21] = system: IGROV-1; assay: inhibition of the growth of ovarian cancer(IGROVI) cell line; conditions: Homo sapiens
[22] = biological target: T2, Dihydrofolate reductase (Rattus norvegicus, UniProt Q920D2); assay: Inhibitory activity against dihydrofolate reductase(DHFR) from rat liver
T2 sequence (Q920D2 whole entry): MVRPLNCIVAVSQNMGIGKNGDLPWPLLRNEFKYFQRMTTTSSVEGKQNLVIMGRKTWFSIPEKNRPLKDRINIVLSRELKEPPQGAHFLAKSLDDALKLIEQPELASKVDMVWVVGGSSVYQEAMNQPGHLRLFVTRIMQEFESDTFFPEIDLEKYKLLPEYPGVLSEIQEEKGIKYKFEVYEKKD

[23] = system: SF-295; assay: inhibition of the growth of CNS cancer(SF-295) cell line; conditions: Homo sapiens
[24] = system: M14; assay: Inhibition of the growth of melanoma cancer (M14) cell line at 0.01 uM; conditions: Homo sapiens
[25] = system: NCI/ADR-RES; assay: Inhibition of the growth of breast cancer (MCF7/ADR-RES) cell line at 0.01 uM; conditions: Homo sapiens
[26] = system: DU-145; assay: Inhibition of the growth of prostate cancer(DU-145) cell line at 0.01 uM; conditions: Homo sapiens
[27] = system: HCT-15; assay: inhibition of the growth of colon cancer(HCT-15) cell line; conditions: Homo sapiens
[28] = system: HCT-116; assay: Inhibition of the growth of colon cancer(HCT116) cell line at 0.01 uM; conditions: Homo sapiens
[29] = system: CAKI-1; assay: inhibition of the growth of renal cancer(CAKI-1) cell line; conditions: Homo sapiens
[30] = system: 786-0; assay: inhibition of the growth of renal cancer(786-0) cell line; conditions: Homo sapiens
[31] = system: MOLT-4; assay: inhibition of the growth of leukemia (MOLT-4) cell line; conditions: Homo sapiens
[32] = system: DU-145; assay: inhibition of the growth of prostate cancer(DU-145) cell line; conditions: Homo sapiens
[33] = system: SF-268; assay: inhibition of the growth of CNS cancer(SF-268) cell line; conditions: Homo sapiens
[34] = system: NCI-H460; assay: inhibition of the growth of non-small-cell lung cancer (NCI-H460) cell line; conditions: Homo sapiens
[35] = system: MDA-MB-435; assay: Inhibition of the growth of breast cancer (MDA-MB-435) cell line; conditions: Homo sapiens
[36] = system: NCI-H460; assay: Inhibition of the growth of non-small-cell lung cancer (NCI-H460) cell line at 0.01 uM; conditions: Homo sapiens
[37] = system: HCT-116; assay: inhibition of the growth of colon cancer(HCT116) cell line; conditions: Homo sapiens
[38] = system: KM12; assay: inhibition of the growth of colon cancer(KM-12) cell line. value in parentheses is percent inhibition at 0.01 uM; conditions: Homo sapiens
[39] = system: NCI-H522; assay: Inhibition of the growth of non-small-cell lung cancer (NCI-H522) cell line at 0.01 uM; conditions: Homo sapiens
[40] = system: SK-MEL-5; assay: Inhibition of the growth of melanoma cancer (SK-MEL-5) cell line at 0.01 uM; conditions: Homo sapiens
[41] = system: MDA-N; assay: Inhibition of the growth of breast cancer(MDA-N) cell line at 0.01 uM; conditions: Homo sapiens
[42] = system: 786-0; assay: Inhibition of the growth of renal cancer(786-0) cell line at 0.01 uM; conditions: Homo sapiens
[43] = system: RPMI-8226; assay: inhibition of the growth of leukemia (RPMI-8226) cell line; conditions: Homo sapiens
[44] = system: IGROV-1; assay: Inhibition of the growth of ovarian cancer(IGROVI) cell line at 0.01 uM; conditions: Homo sapiens
[45] = system: NCI-H23; assay: Inhibition of the growth of non-small-cell lung cancer (NCI-H23) cell line at 0.01 uM; conditions: Homo sapiens
[46] = system: CAKI-1; assay: Inhibition of the growth of renal cancer(CAKI-1) cell line at 0.01 uM; conditions: Homo sapiens
[47] = system: RPMI-8226; assay: Inhibition of the growth of leukemia (RPMI-8226) cell line at 0.01 uM; conditions: Homo sapiens
[48] = system: SF-268; assay: Inhibition of the growth of CNS cancer(SF-268) cell line at 0.01 uM; conditions: Homo sapiens
[49] = system: SR; assay: Inhibition of the growth of leukemia(SR) cell line at 0.01 uM; conditions: Homo sapiens
[50] = system: SF-539; assay: inhibition of the growth of CNS cancer(SF-539) cell line; conditions: Homo sapiens
[51] = system: NCI-H322M; assay: Inhibition of the growth of non-small-cell lung cancer (NCI-H322M) cell line at 0.01 uM; conditions: Homo sapiens
[52] = system: HCT-15; assay: Inhibition of the growth of colon cancer(HCT-15) cell line at 0.01 uM; conditions: Homo sapiens
[53] = system: NCI-H322M; assay: inhibition of the growth of non-small-cell lung cancer (NCI-H322M) cell line; conditions: Homo sapiens

CN(c1ccc2ccccc2c1)c1ccc2nc(N)nc(N)c2n1
inhibition at 0.01 µM [1]: 63%
GI50 [2]: < 10 nM
GI50 [3]: < 10 nM
GI50 [4]: < 10 nM
GI50 [5]: < 10 nM
GI50 [6]: < 10 nM
GI50 [7]: < 10 nM
GI50 [8]: < 10 nM
GI50 [9]: < 10 nM
inhibition at 0.01 µM [10]: 66%
inhibition at 0.01 µM [11]: 65%
inhibition at 0.01 µM [12]: 62%
GI50 [13]: 30 nM
inhibition at 0.01 µM [14]: 54%
inhibition at 0.01 µM [15]: 95%
GI50 [16]: < 10 nM
IC50 [17]: 14.5 nM
inhibition at 0.01 µM [18]: 66%
GI50 [19]: < 10 nM
GI50 [20]: < 10 nM
GI50 [21]: < 10 nM
IC50 [22]: 9.9 nM
GI50 [23]: < 10 nM
inhibition at 0.01 µM [24]: 54%
inhibition at 0.01 µM [25]: 100%
inhibition at 0.01 µM [26]: 51%
GI50 [27]: < 10 nM
inhibition at 0.01 µM [28]: 85%
GI50 [29]: < 10 nM
GI50 [30]: < 10 nM
GI50 [31]: 20 nM
GI50 [32]: < 10 nM
GI50 [33]: < 10 nM
GI50 [34]: < 10 nM
GI50 [35]: < 10 nM
inhibition at 0.01 µM [36]: 79%
GI50 [37]: < 10 nM
GI50 [38]: 10 nM
inhibition at 0.01 µM [39]: 60%
inhibition at 0.01 µM [40]: 77%
inhibition at 0.01 µM [41]: 75%
inhibition at 0.01 µM [42]: 54%
GI50 [43]: < 10 nM
inhibition at 0.01 µM [44]: 65%
inhibition at 0.01 µM [45]: 63%
inhibition at 0.01 µM [46]: 74%
inhibition at 0.01 µM [47]: 66%
inhibition at 0.01 µM [48]: 52%
inhibition at 0.01 µM [49]: 57%
GI50 [50]: < 10 nM
inhibition at 0.01 µM [51]: 56%
inhibition at 0.01 µM [52]: 69%
GI50 [53]: < 10 nM

Source: ChEMBL document CHEMBL1131172 (J Med Chem, 1998)
